Laboratory results taken from article PMC3822689 (Journal of Cellular and Molecular Medicine, 2012).

Legend:
[1] = target: PBR (peripheral benzodiazepine binding sites, rat kidney mitochondrial membranes) (Rattus norvegicus, UniProt P16257); experiment: [3H]-PK 11195 binding, peripheral benzodiazepine receptor; conditions: 10 and 100 μM
[2] = system: CBR (central benzodiazepine binding sites, rat cerebral cortex membranes); experiment: [3H] Ro 15-1788 binding, central benzodiazepine receptor; conditions: 10 and 100 μM

Sequence of PBR (peripheral benzodiazepine binding sites, rat kidney mitochondrial membranes) (P16257 whole entry): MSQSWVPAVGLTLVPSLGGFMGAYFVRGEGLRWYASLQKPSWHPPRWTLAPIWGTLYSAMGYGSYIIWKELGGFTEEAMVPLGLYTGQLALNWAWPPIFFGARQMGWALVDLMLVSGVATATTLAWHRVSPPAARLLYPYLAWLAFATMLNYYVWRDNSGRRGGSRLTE

| SMILES | affinity for PBR [1] | affinity for CBR [2] |
| --- | --- | --- |
| CCC(C)N(C)C(=O)c1cc2ccccc2c(-c2ccccc2Cl)n1 (stereo not shown) [PK 11195, 1-(2-chlorophenyl)-N-methyl-N-(1-methylpropyl)-3-isoquinoline carboxamide] | high affinity | – |
| CCOC(=O)c1ncn2c1CN(C)C(=O)c1cc(F)ccc1-2 [Ro 15–1788] | – | high affinity |
| CN1C(=O)CN=C(c2ccccc2)c2cc(Cl)ccc21 [diazepam] | high affinity | high affinity |
